Among the data in PubChem BioAssay (NCI) are TGI and GI50 values, retold here.

Structures are written as SMILES.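 How tested: cells in 96-well plates exposed to compound for 48 hours at five concentrations. GI50 = concentration required for 50% inhibition of growth. TGI is the concentration that stops growth completely.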

Test systems include SK-MEL-2 melanoma; A498 renal; UACC-62 melanoma; M19-MEL melanoma; HCT-15 colon; SK-OV-3 ovarian; SF-268 CNS; HOP-18 NSCLC; MCF7 breast; MDA-MB-231 breast.
Holding throughout (assay): NCI-60 cell line screen, 48 h

In the case of `CCOC(=O)C(C)(C)Oc1ccc2c(=O)cc(-c3ccccc3)oc2c1`, the TGI with SK-MEL-2 melanoma is 31.5 µM; with A498 renal, more than 100 µM; with UACC-62 melanoma, 33.7 µM; with M19-MEL melanoma it was 41.5 µM; in the experiment with HCT-15 colon, 54.8 µM; in the experiment with SK-OV-3 ovarian, more than 100 µM. The TGI with SF-268 CNS was determined as 56.3 µM; in the experiment with HOP-18 NSCLC, 54.3 µM.

In the case of `NCCCCCS(=O)(=O)O`, the TGI in the experiment with SK-MEL-2 melanoma, in the experiment on A498 renal, in the experiment with UACC-62 melanoma, in the experiment with M19-MEL melanoma, with HCT-15 colon and in the experiment on SK-OV-3 ovarian was more than 100 µM in each case. For the same molecule, the TGI in the experiment with SF-268 CNS and in the experiment with HOP-18 NSCLC was more than 100 µM each time.

On to `CC#C[C@@]1(O)CCCC[C@@H]1O`, for which the TGI in the experiment on SK-MEL-2 melanoma, in the experiment on A498 renal, in the experiment on UACC-62 melanoma, in the experiment with M19-MEL melanoma, with HCT-15 colon and in the experiment with SK-OV-3 ovarian was more than 100 µM each time. In addition, the TGI in the experiment with SF-268 CNS and in the experiment on HOP-18 NSCLC was more than 100 µM each time.

Consider `O=C(c1cc(O)ccc1O)c1ccccc1C(Cl)(Cl)Cl`, for which the TGI in the experiment on SK-MEL-2 melanoma, in the experiment on A498 renal, in the experiment on UACC-62 melanoma, in the experiment on M19-MEL melanoma, in the experiment with HCT-15 colon and in the experiment on SK-OV-3 ovarian was more than 100 µM throughout. Further, the TGI with SF-268 CNS and in the experiment with HOP-18 NSCLC was more than 100 µM each time.

Turning to `COc1cc([C@@H]2c3cc4c(cc3[C@@H](NC(=O)c3ccc(N)cc3)C3COC(=O)[C@@H]32)OCO4)cc(OC)c1O` (stereo partly specified), the TGI in the experiment on SK-MEL-2 melanoma was 28.3 µM; with A498 renal, 11.8 µM; with UACC-62 melanoma, 10.9 µM; in the experiment with M19-MEL melanoma it was more than 100 µM; with HCT-15 colon it was 32 µM; in the experiment with SK-OV-3 ovarian, 8.06 µM. Further, the TGI in the experiment on SF-268 CNS and in the experiment on HOP-18 NSCLC was more than 100 µM in each case.

Regarding `Cc1ccc2nc3c(C)c(Cl)c(=O)cc-3sc2c1`, the TGI in the experiment on SK-MEL-2 melanoma is 37.5 µM; in the experiment with MCF7 breast, 61.8 µM; with A498 renal it was more than 100 µM; with UACC-62 melanoma, 17.4 µM; in the experiment on M19-MEL melanoma, 12.9 µM; in the experiment on HCT-15 colon it was more than 100 µM. The TGI in the experiment with SK-OV-3 ovarian was more than 100 µM; in the experiment on SF-268 CNS it was more than 100 µM; with HOP-18 NSCLC, 75.8 µM; in the experiment with MDA-MB-231 breast, 15.8 µM.

As for `COC(=O)C1=C(OC)c2cc3c(cc2C(c2cc(OC)c(OC)c(OC)c2)C1C(=O)OC)OCO3` (stereo unspecified), the TGI with SK-MEL-2 melanoma, with A498 renal, with UACC-62 melanoma, in the experiment on M19-MEL melanoma, in the experiment with HCT-15 colon and in the experiment on SK-OV-3 ovarian was more than 100 µM each time. Further, the TGI in the experiment on SF-268 CNS and in the experiment on HOP-18 NSCLC was more than 100 µM each time.

On to `O=C1c2ccccc2C(=O)c2c(NCCCNCCO)ccc(NCCCNCCO)c21`, for which the TGI worked out at 17.7 µM with SK-MEL-2 melanoma; 10.8 µM in the experiment on MCF7 breast; 31.1 µM in the experiment on A498 renal; 24.6 µM with UACC-62 melanoma; 18.6 µM in the experiment on M19-MEL melanoma; 29.8 µM with HCT-15 colon. Also, the TGI in the experiment on SK-OV-3 ovarian was 58.7 µM; in the experiment with SF-268 CNS it was 17.9 µM; in the experiment on HOP-18 NSCLC, 67.2 µM; in the experiment with MDA-MB-231 breast, 24.2 µM.

As to `Cc1cnc[nH]c1=O`, the TGI with SK-MEL-2 melanoma, in the experiment with A498 renal, with UACC-62 melanoma, in the experiment with M19-MEL melanoma, in the experiment with HCT-15 colon and in the experiment on SK-OV-3 ovarian was more than 100 µM throughout. For the same molecule, the TGI in the experiment with SF-268 CNS and in the experiment on HOP-18 NSCLC was more than 100 µM each time.

With `C=CN1C(=O)OC(c2ccccc2)C1c1ccccc1` (stereo unspecified), the GI50 in the experiment with SK-MEL-2 melanoma, in the experiment on A498 renal, in the experiment with UACC-62 melanoma, in the experiment on M19-MEL melanoma, with HCT-15 colon and in the experiment with SK-OV-3 ovarian was more than 100 µM each time. Further, the GI50 in the experiment on SF-268 CNS and in the experiment on HOP-18 NSCLC was more than 100 µM in each case. In addition, the TGI in the experiment on SK-MEL-2 melanoma, in the experiment with A498 renal, in the experiment on UACC-62 melanoma, in the experiment with M19-MEL melanoma, with HCT-15 colon and with SK-OV-3 ovarian was more than 100 µM throughout. The TGI with SF-268 CNS and in the experiment with HOP-18 NSCLC was more than 100 µM in each case.

As for `Cc1c[nH]c2c1C13CC1CN(C(=O)c1cc4cc(NC(=O)c5cc6ccccc6o5)ccc4[nH]1)C3=CC2=O` (stereo unspecified), the GI50 in the experiment with SK-MEL-2 melanoma, with MCF7 breast, in the experiment on UACC-62 melanoma, with HCT-15 colon, with SK-OV-3 ovarian and with SF-268 CNS was more than 1.17 ng/mL in each case. In addition, the TGI with SK-MEL-2 melanoma was less than 0.001 µM; with MCF7 breast, 11700 ng/mL; with UACC-62 melanoma, less than 0.001 µM; in the experiment with M19-MEL melanoma it was less than 0.001 µM; in the experiment with HCT-15 colon, less than 0.001 µM; in the experiment with SK-OV-3 ovarian it was 218 ng/mL. The TGI with SF-268 CNS and in the experiment on HOP-18 NSCLC was less than 0.001 µM in each case.
